According to ChEMBL document CHEMBL1152373, “Synthesis and antimultidrug resistance evaluation of icariin and its derivatives” (Bioorg Med Chem Lett, 2009):
Activity calls are given as the source filed them. The calls are words filed in the database; no cut-off is given here.

Tests used:
[1] = Cytotoxicity against human MCF7/ADR cells after 72 hrs by MTT assay; assay type: functional, cell-based; settings: NCI/ADR-RES
MCF7 [2] = assay: Ratio of IC50 for human MCF7/ADR cells to IC50 for human MCF7 cells; assay type: functional
NCI/ADR-RES [3] = assay: Reversal of P-gp-mediated multidrug resistance in human MCF7/ADR cells assessed as modulation factor, ratio of adriamycin IC50 without drug to adriamycin IC50 with drug at 25 uM after 72 hrs by MTT assay; assay type: cell-based
NCI/ADR-RES [4] = assay: Reversal of P-gp-mediated multidrug resistance in human MCF7/ADR cells assessed as assessed as increase in intracellular adriamycin accumulation at 5 uM incubated 2 hrs before adriamycin challenge by spectrophotometry; assay type: cell-based
NCI/ADR-RES [5] = assay: Reversal of P-gp-mediated multidrug resistance in human MCF7/ADR cells assessed as modulation factor, ratio of adriamycin IC50 without drug to adriamycin IC50 with drug at 1 uM after 72 hrs by MTT assay; assay type: cell-based
NCI/ADR-RES [6] = assay: Reversal of P-gp-mediated multidrug resistance in human MCF7/ADR cells assessed as modulation factor, ratio of adriamycin IC50 without drug to adriamycin IC50 with drug at 10 uM after 72 hrs by MTT assay; assay type: cell-based
MCF7 [7] = assay: Reversal of P-gp-mediated multidrug resistance in human MCF7 cells assessed as assessed as increase in intracellular adriamycin accumulation at 5 uM incubated 2 hrs before adriamycin challenge by spectrophotometry; assay type: cell-based
NCI/ADR-RES [8] = assay: Reversal of P-gp-mediated multidrug resistance in human MCF7/ADR cells assessed as enhancement in cytotoxicity of adriamycin; assay type: cell-based
NCI/ADR-RES [9] = assay: Inhibition of MDR1 gene expression in human MCF7/ADR cells after 48 hrs by RT-PCR analysis; assay type: functional, cell-based
P-gp (ABCB1) [10] = biological target: T1, P-gp (ABCB1) (Homo sapiens, UniProt P08183); assay: Inhibition of P-gp in human Caco-2 cells assessed as increase in influx permeability from apical to basolateral side at 50 uM after 120 mins; assay type: cell-based
P-gp (ABCB1) [11] = biological target: T1, P-gp (ABCB1); assay: Inhibition of P-gp in human Caco-2 cells assessed as decrease in efflux permeability from basolateral to apical side at 50 uM after 120 mins; assay type: cell-based

T1 sequence (P08183 whole entry): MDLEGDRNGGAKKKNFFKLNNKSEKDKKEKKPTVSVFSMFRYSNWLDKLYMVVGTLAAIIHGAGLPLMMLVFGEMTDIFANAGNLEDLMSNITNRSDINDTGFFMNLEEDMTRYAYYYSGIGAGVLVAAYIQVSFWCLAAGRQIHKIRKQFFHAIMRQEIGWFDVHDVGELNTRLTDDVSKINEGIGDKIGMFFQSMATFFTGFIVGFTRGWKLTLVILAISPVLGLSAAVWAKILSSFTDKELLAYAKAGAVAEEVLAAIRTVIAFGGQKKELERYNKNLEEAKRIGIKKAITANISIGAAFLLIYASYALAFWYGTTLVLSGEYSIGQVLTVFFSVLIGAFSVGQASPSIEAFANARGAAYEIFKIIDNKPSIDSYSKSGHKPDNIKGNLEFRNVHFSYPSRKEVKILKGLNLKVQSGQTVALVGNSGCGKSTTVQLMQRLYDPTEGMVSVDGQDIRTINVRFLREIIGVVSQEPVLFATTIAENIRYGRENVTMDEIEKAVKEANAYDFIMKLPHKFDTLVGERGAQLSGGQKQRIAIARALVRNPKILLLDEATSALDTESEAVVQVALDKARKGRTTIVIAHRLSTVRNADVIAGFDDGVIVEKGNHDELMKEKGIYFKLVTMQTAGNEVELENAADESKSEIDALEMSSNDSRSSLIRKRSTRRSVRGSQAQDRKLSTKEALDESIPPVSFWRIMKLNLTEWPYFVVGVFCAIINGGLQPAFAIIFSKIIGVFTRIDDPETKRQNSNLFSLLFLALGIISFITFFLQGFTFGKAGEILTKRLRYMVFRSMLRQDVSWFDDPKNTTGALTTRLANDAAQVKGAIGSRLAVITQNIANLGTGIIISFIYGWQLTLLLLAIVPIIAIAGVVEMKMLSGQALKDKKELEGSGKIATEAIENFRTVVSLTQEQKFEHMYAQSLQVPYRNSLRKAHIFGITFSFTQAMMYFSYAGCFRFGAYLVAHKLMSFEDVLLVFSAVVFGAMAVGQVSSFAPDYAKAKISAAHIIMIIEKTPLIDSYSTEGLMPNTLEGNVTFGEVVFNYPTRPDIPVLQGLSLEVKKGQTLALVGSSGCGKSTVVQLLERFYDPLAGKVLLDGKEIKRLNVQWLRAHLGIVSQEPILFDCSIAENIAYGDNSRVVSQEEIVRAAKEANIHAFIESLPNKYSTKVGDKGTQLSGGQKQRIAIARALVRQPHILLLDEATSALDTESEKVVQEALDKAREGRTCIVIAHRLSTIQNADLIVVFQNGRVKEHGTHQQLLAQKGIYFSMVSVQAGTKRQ

inhibition at 2 h, 50 µM (P-gp (ABCB1) [10])	inhibition at 2 h, 50 µM (P-gp (ABCB1) [11])	Compound	IC50 [1]	Ratio IC50 (MCF7 [2])	Ratio IC50 (NCI/ADR-RES [3])	Activity (NCI/ADR-RES [4])	Ratio IC50 (NCI/ADR-RES [5])	Ratio IC50 (NCI/ADR-RES [6])	Activity (MCF7 [7])	Activity (NCI/ADR-RES [8])	Activity (NCI/ADR-RES [9])	fold change (FC) (NCI/ADR-RES [8])
		COc1cccc2c1C(=O)c1c(O)c3c(c(O)c1C2=O)C[C@@](O)(C(=O)CO)C[C@@H]3O[C@H]1C[C@H](N)[C@H](O)[C@H](C)O1 [DOXORUBICIN]	25.3 µM	47.7								
		COc1ccc(-c2oc3c(CC=C(C)C)c(OS(C)(=O)=O)cc(O)c3c(=O)c2OS(C)(=O)=O)cc1	80.8 µM		1.46	Active	1.11	1.36	inactive			
		COc1ccc(-c2oc3c(CC=C(C)C)c(O[C@@H]4O[C@H](CO)[C@@H](O)[C@H](O)[C@H]4O)cc(O)c3c(=O)c2O)cc1	60.8 µM		1.62	Active	1.41	1.49	inactive			
		COc1ccc(-c2oc3c(CCC(C)(C)OC)c(O)cc(O)c3c(=O)c2O)cc1	20.9 µM			Active	1.26	2.41	inactive	Dose-dependent effect		
		COc1ccc(-c2oc3c4c(cc(O)c3c(=O)c2OS(N)(=O)=O)OC(C)(C)CC4)cc1	92.1 µM		3.65	Active	1.42	1.69	inactive		Active	
		COc1ccc(-c2oc3c4c(cc(O)c3c(=O)c2OS(C)(=O)=O)OC(C)(C)CC4)cc1	55 µM		2.71	Active	1.89	2.34	inactive		Active	
39.6%	39.6%	COc1ccc(-c2oc3c4c(cc(O)c3c(=O)c2O)OC(C)(C)CC4)cc1	> 100 µM		10.1	Active	2.33	4.35	inactive		Active	10
		COc1ccc(-c2oc3c4c(cc(O)c3c(=O)c2O)OC(C)(C)CC4)cc1S(=O)(=O)O	> 100 µM		2.56	Active	1.33	2.15	inactive		Active	
		COc1ccc(-c2oc3c(CC=C(C)C)c(O)cc(O)c3c(=O)c2O[C@@H]2O[C@@H](C)[C@H](O)[C@@H](O)[C@H]2O)cc1	> 100 µM		1.61	Active	1.28	1.39	inactive			
41.9%	41.9%	COc1ccc(-c2oc3c(CC=C(C)C)c(O)cc(O)c3c(=O)c2O)cc1 [ICARITIN]	52.1 µM		12.9	Active	2.48	4.96	inactive		Active	10
		COc1ccc(-c2oc3c(CC=C(C)C)c(O[C@@H]4O[C@H](CO)[C@@H](O)[C@H](O)[C@H]4O)cc(O)c3c(=O)c2O[C@@H]2O[C@@H](C)[C@H](O)[C@@H](O)[C@H]2O)cc1 [ICARIIN]	> 100 µM		2.03	Active	1.41	1.59	inactive	Dose-dependent effect		
